Test results reported in patent US8653071B2, “α4β2 neuronal nicotinic acetylcholine receptor ligands” (Suven Life Sciences Limited, priority 2009, dated 2014).
Structures can show the parent of a compound that is named as a salt. Where two headings read alike, the source gives them in different places.

What was measured:
[1] = in vivo; settings: male, Wistar, rat, po, 15 mg/kg
Description: Rodent Brain Penetration Study
(§1) Three animals were housed in each cage. Animals were given water and food ad libitum throughout the experiment, and maintained on a 12 hours light/dark cycle.
(§2) NCE compound was dissolved in water and administered orally. At Tmax (0.5, 1.0 and 2.0) animals were sacrificed to collect the plasma and brain tissue and were homogenized. Plasma and Brain was stored frozen at −20° C. until analysis. The concentrations of the NCE compound in plasma and Brain were determined using LC-MS/MS method.
(§3) The NCE compounds were quantified in plasma and brain homogenate by validated LC-MS/MS method using solid phase extraction technique. NCE compounds were quantified in the calibration range of 1-500 ng/mL in plasma and brain homogenate. Study samples were analyzed using calibration samples in the batch and quality control samples spread across the batch. Extents of brain-blood ratio were calculated (Cb/Cp).

[2] = target: Nicotinic Acetylcholine α4β2 Receptor (UniProt P09483+P12390); experiment: Binding assay for human or rat nicotinic acetylcholine α4β2 receptor ([3H]Cytisine displacement); settings: [3H]Cytisine 2.5 nM, rat brain frontal cortex or recombinant human receptor in CHO cells (not specified which)
Description: Binding Assay for Human or Rat Nicotinic Acetylcholine α4β2 Receptor
• Receptor source: Rat brain frontal cortex or recombinant human cDNA expressed in CHO cells • Radioligand: [^3H]Cytisine 15-40 Ci/mmole • Final ligand concentration—[2.5 nM] • Non-specific determinant: Epibatidine—[0.1 μM] • Reference compound: Epibatidine • Positive control: Epibatidine Incubation Conditions:
Increasing concentrations of test compounds or standard were incubated with membrane receptors and radioligand in 120 mM NaCl, 2.5 mM KCl, 1 mM CaCl2, 1 mM MgCl2 and 50 mM TRIS-HCl (pH 7.4) for 60 minutes at room temperature. The reaction was terminated by rapid vacuum filtration onto the glass fiber filters. Radioactivity trapped onto the filters was determined and compared to the control values in order to ascertain any interactions of the test compound(s) with either cloned human or rat receptor binding site.
Literature Reference: Bunnelle W. H., Daanen J. F., Ryther K. B., Schrimpf M. R., Dart M. J., Gelain A., Meyer M. D., Frost J. M., Anderson D. J., Buckley M., Curzon P., Cao Y-J., Puttfarcken P., Searle X., Ji J., Putman C. B., Surowy C., Toma L. and Barlocco D. Structure-Activity Studies and Analgesic Efficacy of N-(3-Pyridinyl)-Bridged Bicyclic Diamines, Exceptionally Potent Agonists at Nicotinic Acetylcholine Receptors. J. Med. Chem. 2007, 50, […].

[3] = Rodent pharmacokinetic study; type: in vivo; settings: Wistar, Wister rat/Male
Description: Rodent Pharmacokinetic Study
Three to five animals were housed in each cage. Animals were kept fasted over night and maintained on a 12 hours light/dark cycle. Three rats were dosed NCE orally (15 or 5 mg/kg) and intravenously (5 mg/kg) on day 0 and day 2
At each time point blood was collected by jugular vein. Plasma was stored frozen at −20° C. until analysis. The concentrations of the NCE compound in plasma were determined using LC-MS/MS method. Schedule time points: Pre dose 0.25, 0.5, 1, 1.5, 2, 3, 4, 6, 8, 10, 12 and 24 hours after dosing (n=3).
Pharmacokinetic parameters Cmax, Tmax, AUCt, T1/2 and Bioavailability were calculated by non-compartmental model using software WinNonlin version 5.0.1.

[4] = target: T1, recombinant human α4β2 nicotinic acetylcholine receptor (Homo sapiens, UniProt P17787+P43681); experiment: Determination of IC50 and Kb values, aequorin luminescence (intracellular calcium) assay in CHO cells; type: cell-based; settings: antagonist mode vs epibatidine
T1 construct: expressed in transfected cells
Description: Determination of IC50 and Kb Values for Nicotinic Acetylcholine α4β2 Receptor Ligands
A stable CHO cell line expressing recombinant human α4β2 nicotinic acetylcholine receptor transiently expressing aequorin protein was used for cell-based assay. The assay offers a non-radioactive based approach to determine binding of a compound to ligand gated ion channels. In this specific assay, the level of intracellular calcium, which is modulated by activation or inhibition of the channel is measured. Both the channel and aequorin genes are expressed at high level under the control of powerful CMV promotor.
The above cells were grown in 96 well clear bottom white plates in Hams F12 medium containing 10% fetal bovine serum (FBS). Prior to the addition of compounds and/or agonist, cells were serum starved for six hours. Coelentarazine (a prosthetic group for aequorin protein) was added in the medium containing 0.1% dialyzed serum and incubated overnight at 27° C. Cells were washed with assay buffer and increasing concentration of the test compound or standard were added to the plate for antagonist mode. A fixed concentration of the agonist (eipbatidine) was injected into the plate and luminescence was measured for 10 seconds. For evaluation of the compound in agonist mode, increasing concentration of the standard or test compound were injected and the luminescence was measured. Luminescence units were plotted against the compound concentrations using Graphpad software. IC50 values of the compounds were defined as the concentration required in reducing the luminescent units by 50%. The Kb values were calculated by feeding the concentration of the agonist used in the assay and its EC50 value in the same software.
Literature References: Karadsheh M. S., Shah M. S., Tang X., Macdonald R. L. and Stitzel J. A. Functional characterization of mouse α4β2 nicotinic acetylcholine receptors stably expressed in HEK293T cells. J. Neurochem. 2004, 91, 1138-1150.

[5] = Rodent brain penetration study; settings: male, Wistar, rat, brain homogenate and plasma, po, 5 mg/kg
Description: Rodent Brain Penetration Study
as §1, §2, §3

[6] = tested on: Male Wister rats; experiment: Acute food intake study (animal model of hyperphagia); type: in vivo, rat; settings: oral
Description: The appetite suppressing properties of compounds of this invention were studied using an animal model of hyperphagia.
Male Wister rats (200-210 grams) obtained from Raj Biotech, India were used as experimental animals. The experiment consisted of 6 days. The rats were adapted to the 18 hour fasting and 6 hour feeding pattern. The animals were housed in a group of three in the cages provided with the fasting grills and were fasted for 18 hours. After 18 hour fasting the rats were separated and placed individually in a cage. Weighed amount of feed was provided to rats for 6 hour and the feed intake at 1, 2, 4 and 6 hours was recorded. Again the rats were regrouped and fasted for 18 hour. The above procedure was followed for 5 days. The average cumulative food intake by the rats on the last 3 days was calculated. Animals were randomised on the basis of their last three days food intake.
One group of 8 rats received vehicle (2 mL/Kg) orally and another set of animals received compound of the formula (I) orally. Then the rats were given access to food and the food intake at 1, 2, 4 and 6 hours was recorded. The food intake by the rats treated with test compound was compared with the vehicle treated group by using students‘t’ test.

[7] = plasma, 5 mg/kg Per-Oral vs 5 mg/kg Intravenous

T1 sequence (P43681 29-627 limits assumed): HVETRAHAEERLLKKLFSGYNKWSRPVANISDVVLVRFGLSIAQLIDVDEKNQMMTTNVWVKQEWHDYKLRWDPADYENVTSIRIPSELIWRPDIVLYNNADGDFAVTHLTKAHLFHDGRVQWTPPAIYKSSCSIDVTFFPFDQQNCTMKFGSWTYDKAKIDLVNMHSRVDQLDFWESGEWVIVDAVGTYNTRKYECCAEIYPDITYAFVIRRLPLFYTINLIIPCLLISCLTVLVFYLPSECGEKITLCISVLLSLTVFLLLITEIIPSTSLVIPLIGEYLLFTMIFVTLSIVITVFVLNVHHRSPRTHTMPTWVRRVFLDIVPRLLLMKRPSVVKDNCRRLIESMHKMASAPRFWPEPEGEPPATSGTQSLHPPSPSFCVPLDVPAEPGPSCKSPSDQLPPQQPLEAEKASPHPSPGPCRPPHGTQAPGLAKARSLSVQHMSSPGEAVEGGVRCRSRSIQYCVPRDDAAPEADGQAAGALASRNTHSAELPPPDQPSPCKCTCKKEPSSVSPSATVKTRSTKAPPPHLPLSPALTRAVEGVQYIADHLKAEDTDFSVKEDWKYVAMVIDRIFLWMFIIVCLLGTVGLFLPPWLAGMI
T1 sequence (P17787 26-502): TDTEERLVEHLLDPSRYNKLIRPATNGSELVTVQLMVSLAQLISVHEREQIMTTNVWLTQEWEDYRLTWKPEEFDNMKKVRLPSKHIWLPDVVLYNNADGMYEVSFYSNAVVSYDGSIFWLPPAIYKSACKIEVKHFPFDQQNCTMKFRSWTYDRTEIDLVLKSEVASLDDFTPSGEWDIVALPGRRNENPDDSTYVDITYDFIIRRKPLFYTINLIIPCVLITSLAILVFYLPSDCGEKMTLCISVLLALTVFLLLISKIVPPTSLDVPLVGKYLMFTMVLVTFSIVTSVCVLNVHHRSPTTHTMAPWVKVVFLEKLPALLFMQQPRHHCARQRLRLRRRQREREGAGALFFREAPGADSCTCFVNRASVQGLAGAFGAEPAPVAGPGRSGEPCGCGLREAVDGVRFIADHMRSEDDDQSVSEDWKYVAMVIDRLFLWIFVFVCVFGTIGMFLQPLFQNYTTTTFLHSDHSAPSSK

Structure (SMILES): CNCC1CC2CC2N1c1cncc(Br)c1 (centres unmarked) [Example 11, N-[2-(5-Bromopyridin-3-yl)-2-azabicyclo[3.1.0]hex-3-ylmethyl]methylamine]
- Kp [1]: 8.75 ± 1.59
- Ki ([2]; read-out: Ki): 46.4 nM
- AUC(0-t) ([3]; in vivo, 5 mg/kg, Intravenous): 2540 ± 1300 ng·h/mL
- Cmax ([3]; in vivo, 5 mg/kg, Intravenous): 1440 ± 330 ng/mL
- Tmax ([3]; in vivo, 5 mg/kg, Intravenous): 4.8 min
- half-life ([3]; in vivo, 5 mg/kg, Intravenous): 87 ± 31.8 min
- bioavailability ([3]; in vivo, 15 mg/kg Per-Oral vs 5 mg/kg Intravenous): 59 ± 31%
- AUC(0-t) ([3]; in vivo, 15 mg/kg, Per-Oral): 3880 ± 846 ng·h/mL
- Cmax ([3]; in vivo, 15 mg/kg, Per-Oral): 1990 ± 435 ng/mL
- Tmax ([3]; in vivo, 15 mg/kg, Per-Oral): 18.6 ± 7.8 min
- half-life ([3]; in vivo, 15 mg/kg, Per-Oral): 115 ± 72 min

Structure (SMILES): CN(C)CC1CC2CC2N1c1cncc(Br)c1.Cl (centres unmarked) [Example 1, N-[2-(5-Bromopyridin-3-yl)-2-azabicyclo[3.1.0]hex-3-ylmethyl]-dimethylamine hydrochloride]
- Kb ([4]; read-out: Kb): 1.4 nM
- Ki ([2]; read-out: Ki): 23 nM
- AUC(0-t) ([3]; plasma, 5 mg/kg, Intravenous): 901 ± 47 ng·h/mL
- Cmax ([3]; plasma, 5 mg/kg, Intravenous): 1940 ± 260 ng/mL
- Tmax ([3]; plasma, 5 mg/kg, Intravenous): 8.4 ± 6 min
- half-life ([3]; plasma, 5 mg/kg, Intravenous): 59.4 ± 15 min
- bioavailability ([3]; plasma, 15 mg/kg Per-Oral vs 5 mg/kg Intravenous): 10 ± 5%
- AUC(0-t) ([3]; plasma, 15 mg/kg, Per-Oral): 273 ± 160 ng·h/mL
- Cmax ([3]; plasma, 15 mg/kg, Per-Oral): 219 ± 120 ng/mL
- Tmax ([3]; plasma, 15 mg/kg, Per-Oral): 15 min
- half-life ([3]; plasma, 15 mg/kg, Per-Oral): 34.8 ± 7.8 min

Structure (SMILES): Brc1cncc(N2C(CN3CCNCC3)CC3CC32)c1 (centres unmarked) [Example 8, 2-(5-Bromopyridin-3-yl)-3-(piperazin-1-ylmethyl)-2-azabicyclo[3.1.0]hexane]
- Kb ([4]; Kb): 4.6 nM
- Ki ([2]; read-out: Ki): 610 nM

Structure (SMILES): CNCC1CC2CC2N1c1ccc(C(F)(F)F)nc1.O=C(O)/C=C/C(=O)O (centres unmarked) [Example 23, N-(2-(2-trifluoromethylpyridin-5-yl)-2-azabicyclo[3.1.0]hex-3-ylmethyl) methyl amine fumarate]
- Ki ([2]; read-out: Ki): 2 nM
- Kp [5]: 1.97 ± 0.08
- bioavailability [3, 7]: 67 ± 9%
- AUC(0-t) ([3]; plasma, 5 mg/kg, Intravenous): 18000 ± 3300 ng·h/mL
- Cmax ([3]; plasma, 5 mg/kg, Intravenous): 3640 ± 89 ng/mL
- Tmax ([3]; plasma, 5 mg/kg, Intravenous): 4.8 min
- half-life ([3]; plasma, 5 mg/kg, Intravenous): 415 ± 145 min
- AUC(0-t) ([3]; plasma, 5 mg/kg, Per-Oral): 12000 ± 1740 ng·h/mL
- Cmax ([3]; plasma, 5 mg/kg, Per-Oral): 2310 ± 163 ng/mL
- Tmax ([3]; plasma, 5 mg/kg, Per-Oral): 19.8 ± 8.4 min
- half-life ([3]; plasma, 5 mg/kg, Per-Oral): 307 ± 11.4 min

Structure (SMILES): Brc1cncc(N2C(CN3CCNCC3)CC3CC32)c1 (centres unmarked) [Example 9, 2-(5-Bromopyridin-3-yl)-3-(piperazin-1-ylmethyl)-2-aza-bicyclo[3.1.0]hexane]
- Kb ([4]; Kb): 73.1 nM

Structure (SMILES): CNCC1CC2CC2N1c1cncnc1.O=C(O)/C=C/C(=O)O (centres unmarked) [Example 21, N-(2-(pyrimidin-5-yl)-2-azabicyclo[3.1.0]hex-3-ylmethyl)methyl amine fumarate]
- Ki ([2]; read-out: Ki): 465 nM
- Kp [5]: 1.74 ± 0.27
- bioavailability [3, 7]: 101 ± 20%
- AUC(0-t) ([3]; plasma, 5 mg/kg, Intravenous): 2030 ± 525 ng·h/mL
- Cmax ([3]; plasma, 5 mg/kg, Intravenous): 1570 ± 261 ng/mL
- Tmax ([3]; plasma, 5 mg/kg, Intravenous): 4.8 min
- half-life ([3]; plasma, 5 mg/kg, Intravenous): 85.8 ± 10.8 min
- AUC(0-t) ([3]; plasma, 5 mg/kg, Per-Oral): 1970 ± 100 ng·h/mL
- Cmax ([3]; plasma, 5 mg/kg, Per-Oral): 685 ± 107 ng/mL
- Tmax ([3]; plasma, 5 mg/kg, Per-Oral): 37.8 ± 15 min
- half-life ([3]; plasma, 5 mg/kg, Per-Oral): 78 ± 22.2 min

Structure (SMILES): NCC1CC2CC2N1c1cccnc1 (centres unmarked) [Example 18, [2-(Pyridin-3-yl)-2-azabicyclo[3.1.0]hex-3-yl] methylamine fumarate]
- Ki [2]: 6.4 nM
- Inference [6]: Active
- % Suppression of food intake compared to vehicle, 1 Hour ([6]; 1 Hour, 18 hour fasted rats): 36.80%
- % Suppression of food intake compared to vehicle, 2 Hour ([6]; 2 Hour, 18 hour fasted rats): 33.05%
- % Suppression of food intake compared to vehicle, 4 Hour ([6]; 4 Hour, 18 hour fasted rats): 30.02%
- % Suppression of food intake compared to vehicle, 6 Hour ([6]; 6 Hour, 18 hour fasted rats): 25.38%
- Kp [5]: 3.52 ± 0.13
- bioavailability ([3]; in vivo, 5 mg/kg Per-Oral vs 5 mg/kg Intravenous): 87 ± 24%
- AUC(0-t) ([3]; in vivo, 5 mg/kg, Intravenous): 1760 ± 228 ng·h/mL
- Cmax ([3]; in vivo, 5 mg/kg, Intravenous): 701 ± 213 ng/mL
- Tmax ([3]; in vivo, 5 mg/kg, Intravenous): 22.8 ± 8.4 min
- half-life ([3]; in vivo, 5 mg/kg, Intravenous): 85.8 ± 6.6 min
- AUC(0-t) ([3]; in vivo, 5 mg/kg, Per-Oral): 1540 ± 165 ng·h/mL
- Cmax ([3]; in vivo, 5 mg/kg, Per-Oral): 355 ± 53 ng/mL
- Tmax ([3]; in vivo, 5 mg/kg, Per-Oral): 4.8 min
- half-life ([3]; in vivo, 5 mg/kg, Per-Oral): 105 ± 24 min

Structure (SMILES): CN(C)CC1CC2CC2N1c1cccnc1 (centres unmarked) [Example 10, N-[2-(Pyridin-3-yl)-2-azabicyclo[3.1.0]hex-3-ylmethyl]dimethylamine]
- Kb ([4]; read-out: Kb): 3.4 nM
- Ki ([2]; read-out: Ki): 77 nM
